PMC5458211, “Mitochondrial VDAC1-based peptides: Attacking oncogenic properties in glioblastoma” (Oncotarget, 2017)
Non-standard residues stand in square brackets, D forms with d. Residues, ends and D or L forms follow the SMILES beside them.

Legend:
GL-261MG cells = test: Cell death by PI staining and flow cytometry, GL-261MG; assay type: cell-based; settings: mouse glioblastoma, 6 h at 37°C, serum-free medium, Suppl Fig 1
Method: Cells (6×10^5 /ml) were incubated in 500 μl serum-free medium with the peptide of interest for 6 h at 37°C in the presence of 5% CO2. The cells were then trypsinized, centrifuged (1500xg, 5 min), washed with PBS and analyzed for cell death using propidium iodide (PI) staining and flow cytometer (Beckton-Dickinson, San Jose, CA) and BD CellQuest Pro software. Apoptotic cell death was also analyzed by PI and annexin V-FITC staining, and by acridine orange and ethidium bromide staining and light microscopy (Olympus LX2-KSP). […]
was subsequently visualized by incubating with DAB. […]
Supplementary Figure 1: VDAC1-based peptides induce dramatic cell death of several brain tumor-derived cell […]
Ter-Antp (●) peptide in serum-free appropriate growth medium for 6 h at 37°C. Cells were harvested, washed twice with PBS and cell death was analyzed by propidium iodide (PI) staining and ﬂow cytometry. D. Summary of IC50 values (μM) for the peptides with the indicated […]
(also on this page, place not known: www.impactjournals.com/oncotarget/ Oncotarget, Materials 2017 V , Supplementary) […]

[1] = test system: metabolic enzymes and transporters; test: Expression of energy- and metabolism-related proteins in treated tumors (IHC, immunoblot); assay type: in vivo, human U-87MG in nude mice; settings: for VDAC1 staining: treated tumors vs strong staining in PBS/DMSO
From the text: Figure 5 VDAC1-based peptide-treated tumors show marked changes in the expression of energy- and metabolism-related enzymes Dissected tumors were subjected to immunohistochemistry as described in Experimental Procedures. A, B. Representative sections from PBS/DMSO- and Tf-D-LP4-TTs were IHC stained for Glut-1, HK-I, HK-II, GAPDH, LDH, VDAC1, CS, Complex IVc and ATP synthase 5a are presented. Sections were also hematoxylin-stained and visualized by microscopy. C. Tissue lysates obtained from controls and several Tf-D-LP4-TTs were immunoblotted for HK-I, HK-II, VDAC1, GAPDH, LDH, CS, and ATP synthase 5a. D. Quantitative analysis of immunoblots is shown (n=2-4).
Formalin-fixed, paraffin-embedded sections of control and peptide-TTs were hematoxylin-eosin stained, probed with appropriate antibodies via IHC staining or immunoblotting of cells and tissue extracts. […]
10 ml of aqueous solution containing 1% PVA (w/v). The software. These experimental protocols were approved by mixtures were stirred continuously at room temperature the Institutional Animal Care and Use Committee of Ben-until complete evaporation of the organic solvent. The Gurion University. […]
HBSS solution. Cells or tumor tissue were lysed using lysis buffer (50 mM Tris-HCl, pH 7.5, 150 mM NaCl, 1
Xenograft and intracranial-orthotopic mouse mM EDTA, 1.5 mM MgCl2, 10% glycerol, 1% Triton models X-100, supplemented with a protease inhibitor cocktail
(Calbiochem, UK). Cell lysates were then centrifuged at U-87MG glioblastoma cells (3 x106) were inoculated 600xg (10 min at 4°C) and samples (10-40 μg of protein) s.c. into the hind leg ﬂanks of athymic eight-week old were subjected to SDS-PAGE and immunoblotting male nude mice (Envigo). Thirteen days post-inoculation, using various primary antibodies (sources and dilutions tumor volume was measured and calculated (100-130 as detailed in supplementary Table 2), followed by mm3) and mice were randomized into three groups (5 the appropriate HRP-conjugated secondary antibodies mice/group). Each treatment substance was injected into (i.e., anti-mouse, anti-rabbit or anti-goat). Blots the established s,c. tumors using PBS containing 0.26% were developed using enhanced chemiluminescence DMSO or peptide in PBS, 0.26% DMSO/20 μM). The (Biological Industries). Band intensities were analyzed xenografts were injected 20 µl per tumor (2 points) every by densitometry using Multi Gauge software (Fujifilm) two days. Beginning on the day of inoculation, mouse and the values were normalized to the intensities of the weight and tumor volume were monitored twice a week appropriate β-actin signal that served as a loading control. for a period of 23 days using a digital caliper. At the end of the experiments, the mice were sacrificed, tumors were IHC of tumor tissue sections excised and ex vivo weight was determined. Half of each tumor was either fixed in 4% buffered formaldehyde, IHC staining was performed on 5 μm-thick paraffin-embedded and processed for IHC or frozen in formalin-fixed and paraffin-embedded tumor tissue liquid nitrogen for later immunoblot analysis. sections. The sections were deparaffinized by placing To generate an intracranial-orthotopic mouse model, the slides at 60°C for 1 h and using xylene. […]
(Stoelting, Wood Dale, IL). A middle incision was made c, cytochrome c oxidase subunit IVc, GAPDH, Glut1, on the skull and a burr hole was introduced 0.5 mm HK-II, Klf4, LDH, Nestin, NGFR, P53, SMAC/Diablo, anterior to the bregma and 2.5 mm lateral to the midline Sox2, S100b, VDAC1) was performed in 0.01 M citrate using a drill (Stoelting). A 31-gauge needle loaded with buffer (pH 6.0). For CD31, HK-I and Ki-67, antigen 10 µL PBS was used to deliver tumor cells. The needle retrieval was performed in 10 mM Tris-EDTA (pH 9) and tip was inserted into the brain 3 mm deep, relative to the 0.5 M Tris (pH 10), for 30 minutes each at 95-98°C. After […]

CC[C@H](C)[C@H](NC(=O)[C@H](C)NC(=O)[C@@H](N)Cc1c[nH]cn1)C(=O)N[C@@H](Cc1ccc(O)cc1)C(=O)N1CCC[C@H]1C(=O)N[C@@H](CCCNC(=N)N)C(=O)N[C@@H](Cc1c[nH]cn1)C(=O)N[C@@H](CO)C(=O)N[C@@H](Cc1c[nH]c2ccccc12)C(=O)N[C@H](C(=O)N[C@@H](Cc1c[nH]c2ccccc12)C(=O)N[C@@H](CCC(=O)O)C(=O)N[C@H](CCCCN)C(=O)N[C@H](CCCCN)C(=O)N[C@H](CC(C)C)C(=O)N[C@H](CCC(=O)O)C(=O)N[C@@H](C(=O)N[C@H](C)C(=O)N[C@@H](C(=O)N[C@H](CC(N)=O)C(=O)N[C@H](CC(C)C)C(=O)N[C@H](C)C(=O)N[C@H](Cc1c[nH]c2ccccc12)C(=O)N[C@@H](C(=O)N[C@H](C)C(=O)NCC(=O)N[C@H](CC(N)=O)C(=O)N[C@H](CO)C(=O)N[C@H](CC(N)=O)C(=O)N[C@@H](CCCCN)C(=O)N[C@@H](Cc1c[nH]c2ccccc12)C(=O)N[C@H](C(=O)N[C@@H](Cc1c[nH]c2ccccc12)C(=O)N[C@@H](CCCCN)C(=O)O)[C@@H](C)O)[C@H](C)O)C(C)C)[C@H](C)O)[C@@H](C)O [Tf-D-LP4] was tested, and the “cell death, GL-261MG” value (GL-261MG cells) was “effectively induce cell death”, the “ATP synthase subunit 5a expression” value ([1]; treated tumors vs PBS/DMSO) was “markedly lower” and the GAPDH level ([1]; treated tumors vs PBS/DMSO) was “dramatically lower”. The Glut-1 level ([1]; treated tumors vs PBS/DMSO) was “dramatically lower”, the HK-I level ([1]; treated tumors vs PBS/DMSO) was “dramatically lower” and the HK-II level ([1]; treated tumors vs PBS/DMSO) was “dramatically lower”. For the same molecule, the LDH level ([1]; treated tumors vs PBS/DMSO) was “dramatically lower”, the “citrate synthase (CS) expression” value ([1]; treated tumors vs PBS/DMSO) was “markedly lower” and the “complex IVc expression” value ([1]; treated tumors vs PBS/DMSO) was “markedly lower”. For the same molecule, the VDAC1 staining [1] was “only very weak staining”.
For CC[C@@H](C)[C@@H](NC(=O)[C@@H](CCCCN)NC(=O)[C@H](NC(=O)[C@@H](CCC(N)=O)NC(=O)[C@@H](CCCNC(=N)N)NC(=O)[C@@H](CC(C)C)NC(=O)CNC(=O)[C@@H](Cc1ccccc1)NC(=O)CNC(=O)[C@@H](Cc1ccc(O)cc1)NC(=O)CNC(=O)[C@@H](CCCCN)NC(=O)[C@H](NC(=O)[C@@H](Cc1ccccc1)NC(=O)[C@H](NC(=O)[C@@H](CC(=O)O)NC(=O)[C@H](N)CCCNC(=N)N)C(C)C)[C@H](C)O)[C@H](C)CC)C(=O)N[C@H](Cc1c[nH]c2ccccc12)C(=O)N[C@H](Cc1ccccc1)C(=O)N[C@H](CCC(N)=O)C(=O)N[C@H](CC(N)=O)C(=O)N[C@H](CCCNC(=N)N)C(=O)N[C@H](CCCNC(=N)N)C(=O)N[C@H](CCSC)C(=O)N[C@H](CCCCN)C(=O)N[C@H](Cc1c[nH]c2ccccc12)C(=O)N[C@H](CCCCN)C(=O)N[C@H](CCCCN)C(=O)O [D-ΔN-Ter-Antp] (H-[dR][dD][dV][dF][dT][dK]G[dY]G[dF]G[dL][dR][dQ][dI][dK][dI][dW][dF][dQ][dN][dR][dR][dM][dK][dW][dK][dK]-OH; N-terminus and C-terminus assumed), the “cell death, GL-261MG” value (GL-261MG cells) was “effectively induce cell death” and the VDAC1 staining [1] was “only very weak staining”.
